Experimental findings from patent publication US20060078890A1, “Methods for identifying parkinson's disease therapeutics” (priority 2004, published 2006) are described below.

Entries after “also recorded” stand apart in the source; their conditions may differ. Ends that are not written are not given here.

In data set [1] the test system is dopaminergic neurons in the substantia nigra. The data set is described as follows: Progressive 6-OHDA lesioned rats, TH immunohistochemistry of striatum and substantia nigra. Type of data set: in vivo, rat. The settings on record: unilateral intrastriatal 6-OHDA, total dose 22.5 μg; up to 28 days. Here is the method: Female Sprague Dawley rats (200-250 g, Charles River, Wilmington, Mass.) receive unilateral intrastriatal stereotaxic injections of 6-OHDA (Sigma, St. Louis, USA) using a 10 μl Hamilton syringe. Intramuscular injections of Acepromazine (3.3 mg/kg, PromAce, Fort Dodge, Iowa) and atropine sulfate (0.2 mg/kg, Phoenix Pharmaceuticals, St. Joseph, Mo.) is given 10 minutes before animals will be anesthetized with ketamine/xylazine (60 mg/kg and 3 mg/kg respectively, i.m.). A concentration of 3.0 μg/μl free base 6-OHDA dissolved in 0.2% ascorbic acid/saline (Sigma) is injected into 3 locations (2.5 μl/site, total dose 22.5 μg) in the right striatum at the following coordinates (calculated from bregma): site 1, AP+1.3, L−2.8, DV−4.5, IB−2.3; site 2, AP+0.2, L−3.0, DV−5.0, IB−2.3; site 3, AP−0.6, L−4.0, DV−5.5, IB−2.3 mm.

In data set [2] the test system is PC12-αSyn cells. Put plainly: MPP+ toxicity in α-synuclein overexpressing PC12 cells, cell death by LDH release. Type of data set: cell-based. The settings on record: for LDH release (cell death) induced by MPP+ toxicity; neuroprotective effect: PC12-αSyn cells pretreated for two hours prior to 1 mM MPP+ for 24 hours, increasing concentrations. Here is the method: A PC12 cell line was transfected to express wild type human α-synuclein using the Tet-Off system (Clontech Laboratories, Palo Alto, Calif.). α-Synuclein expression was suppressed using 1 μg/mL doxycycline (Clontech) in culture media before expression is required. α-Synuclein expressing PC12 cells (PC12-αSyn) were grown in Dulbecco's modified Eagle's medium (DMEM) (Invitrogen, Calsbad, Calif.) supplemented with 10% heat-inactivated horse serum, 5% heat-inactivated fetal calf serum (Hyclone, Logan, Utah), 4 mM L-glutamine, streptomycin, and penicillin G (Fisher, Pittsburgh, Pa.). Cells were maintained at 37° C., in 5% CO2 humid atmosphere.
The effects of various neuroprotective agents were examined in the PC12-αSyn cell line. To determine MPP^+ neurotoxicity in α-synuclein- and naïve PC12 cells, cell death was measured by LDH release assays.
(§1) Cell death will be assessed by quantifying intra- and extracellular lactate dehydrogenase (LDH). The ratio between the amount of LDH released and the amount remaining in the cells produces a measure of cell death. [formula]
(§2) A sample of the medium will be the extracellular LDH sample. Cells were washed with PBS and extracted in cell lysis buffer (50 mM Tris pH 8.0, 150 mM NaCl, 5 mM EDTA, 1% Triton X-100, 10 μg/ml Aprotinin, 25 μg /ml Leupeptin, 10 μg/ml Pepstatin, 1 mM PMSF; all protease inhibitors purchased from Sigma Chemicals, St. Louis, Mo.). The cell homogenate were centrifuged at 4° C. for 3 minutes at 14,000 rpm. The supernatant were taken for intracellular LDH sample. LDH activity will be quantified using an LDH assay kit (Roche, Indianapolis, Ind.).

Data set [3] relates to DAN cells. The data set is described as follows: MPP+ toxicity in human dopaminergic neuron precursor (DAN) cells, LDH release. It counts as cell-based. The settings on record: for LDH release (cell death) in MPP+ treated DAN cells: pretreated for two hours prior to MPP+ (1 mM).
Excerpt: DAN cells, which have been used to study neurodegeneration, can be used in the methods of this invention; they express multiple genes of Tables 4 and/or 5, and the expression of these genes following contact with a candidate compound can be measured. […] DAN cells are sensitive to the neurotoxin MPP^+.
as §1, §2

The test system of data set [4] is TH-positive/GIRK2-positive dopaminergic neurons of primary VM culture. The data set is described as follows: MPP+ toxicity in primary ventral mesencephalic (VM) culture, stereological count of TH-positive/GIRK2-positive neurons. It counts as cell-based, rat. The settings on record: for protective effect against MPP+ toxicity on GIRK2-positive/TH-positive neurons: pretreated 2 hours prior to 10 μM MPP+. As for the experimental part: VMDA cultures were obtained from E15 Sprague-Dawley rat (Charles River, Mass.) ventral mesencephalon (VM). Tissue was mechanically dissociated with a pasteur pipette. The cells were resuspended in DMEM containing heat-inhibited horse serum (10%), glucose (6.0 mg/ml), penicillin, streptomycin, and 2 mM glutamine (Gibco). Cell suspensions containing 4×10^5 cells were plated on a coverslip in a 24-well plate, precoated with a 1:500 diluted solution of polyornithine and fibronectin in 50 mM sodium borate (pH 7.4) overnight.
These cultures contained a mixed cell population having approximately 40% of TH-positive neurons at 5 days in vitro (DIV) with both A9- and A10-like dopaminergic neurons (FIG. 4A). […] The cultures were treated with MPP^+ at day 5 for 48 hours using concentrations ranging from 0.1 to 10 μM. Cells were fixed with paraformaldehyde for immunostaining of TH and GIRK2 48 hours after MPP^+ treatment.
The cultures were pretreated with the polypeptide factors 2 hours prior to 10 μM MPP^+ treatment.
Routine indirect immunofluorescence was performed on 4% paraformaldehyde fixed VM culture. The fixed cells were incubated in a blocking solution consisting of 10% normal donkey serum (Jackson Immuno Research Laboratories Inc, West Grove, Pa.) and 0.1% Triton X-100 (Sigma, St. Louis, Mo.) in 0.1M phosphate buffered saline (PBS) for 1 hour at room temperature before transferring to the primary antibody solution. The primary antibodies were diluted in blocking solution and the cells were incubated overnight at 4° C. The primary antibodies used were raised against tyrosine hydroxylase (sheep anti-TH, 1:300, Pel-Freez Biologicals, Rogers, Ak.) and GIRK2 (rabbit; 1:80, Alomone Laboratories, Jerusalem, Israel). The cells were rinsed three times in 0.1 M PBS for five minutes each before the application of the secondary antibody solution for one hour at room temperature. The secondary antibodies were diluted in 10% normal donkey serum in 0.1M PBS. The secondary antibodies were conjugated to spectrally distinct fluorescent dyes to facilitate color separation (Alexa Fluor 488 conjugated donkey anti-sheep and Alexa Fluor 594 conjugated donkey anti-rabbit, Molecular Probes, Eugene, Oreg.). After rinsing in triplicate for ten minutes each in 0.1 M PBS, the cells were counterstained with 0.0005% Hoechst 33342 (Molecular Probes) in 0.1M Tris buffered saline. The coverslips containing the fixed cells were then rinsed in 0.1M PBS followed by distilled water and mounted onto slides using an aqueous mountant (Gel/Mount, Biømeda Corp., Calif.). Control coverslips immunostained without primary antibody were used to assess specificity of the technique.
Design based stereology was performed by counters blinded to experimental groups on the stained coverslips using an integrated Axioskop 2 microscope (Carl Zeiss, Thornwood, N.Y.) and Stereoinvestigator image capture equipment and software (MicroBrightField, Williston, Vt.). A contour was drawn around each coverslip to identify the area of interest. A physical disector probe was utilized and counting frames were placed in a systematically random manner at approximately 125 sites per coverslip. The resultant coefficient of error for the stereological counts was used to assess precision (p<0.05).

In the case of `NCCc1cc(O)c(O)cc1O` [6-OHDA, 6-hydroxydopamine], the “loss of dopaminergic fibers in the striatum and neuronal cell bodies in the substantia nigra” value in data set [1] was “progressive degeneration of dopaminergic neuronal cell bodies”.

As for `COC(=O)C[C@H](NC(=O)OC(C)(C)C)C(=O)CF` [BAF, reference compound], the “MPP+ susceptibility (LDH release) after pretreatment with neuroprotective agent” value in data set [2] (PC12-αSyn cells pretreated) is reported as “significantly decreased”.

For the compound `C[n+]1ccc(-c2ccccc2)cc1` [MPP^+, 1-methyl-4-phenylpyridinium, reference compound], the “dose of MPP+ giving maximal toxic insult (LDH release)” value in data set [3] (DAN cells) worked out at 2.5 mM. Besides, the “vulnerability of TH-positive/GIRK2-positive versus TH-positive/GIRK2-negative cells” value in data set [4] (primary VM culture, MPP+ 0.1 to 10 μM at day 5 for 48 hours) is “more vulnerable”. For the same compound, the “LDH release in PC12-αSyn cells compared with naive PC12 cells” value in data set [2] (intermediate concentration (2.5 mM) of MPP+) is reported as “significantly higher LDH release”.

In the case of Fibroblast growth factor 1 [FGF1], the “LDH release (cell death) induced by MPP+ toxicity; protection by FGF1” value in data set [2] (PC12-αSyn cells, FIG. 2D) is “significantly reduced; also recorded: able to protect PC12-αSyn cells from MPP^+ in a dose-dependent manner”.

On to “NT-3: neurotrophic factor known to have elevated expression in A10 dopaminergic neurons”, for which the results for the “LDH release (cell death) in MPP+ treated DAN cells” value in data set [3] and in data set [3] (listed as NT3) were “significant dose-dependent reduction in LDH release” and “protective effect”, respectively. For the same compound, in data set [4] (primary VM culture), the “protective effect against MPP+ toxicity on GIRK2-positive/TH-positive neurons” value (“protective effect against MPP+ toxicity” below) is “significant protective effect”. Also, the “survival of TH and TH/GIRK2 double-labeled neurons against MPP+ toxicity” value in data set [4] (primary VMDA culture, NT3 at 17 ng/ml, MPP+ 10 μM) is “protects the cells against MPP^+ toxicity”. Moreover, the “LDH release (cell death) induced by MPP+ toxicity; neuroprotective effect” value (shortened to “LDH release … neuroprotective effect”) in data set [2] is reported as “Significant dose-dependent reductions in LDH release; also recorded: able to protect PC12-α-Syn cells from MPP^+ neurotoxicity in a dose-dependent manner”.

Consider “Vasoactive intestinal peptide (HSDAVFTDNYTRLRKQMAVKKYLNSILN; ends and bridges not checked; UniProt P01282 125-152, looked up) [VIP, neuropeptide elevated in A10 dopaminergic neurons]”, for which, in data set [4] (48 hours after 10 μM MPP+, 10^−6 M VIP), the “neuroprotective effect in primary VM culture (TH and GIRK2 immunostaining)” value is “neuroprotective effect”. In data set [4] (primary VM culture), the “protective effect against MPP+ toxicity” value was “significant protective effect”. Besides, in data set [2], the “LDH release … neuroprotective effect” value was “Significant dose-dependent reductions in LDH release; also recorded: dose-dependent neuroprotective effects”.

Turning to “calcitonin/calcitonin gene-related peptide alpha [CGRP]”, in data set [2], the “LDH release … neuroprotective effect” value is “Significant dose-dependent reductions in LDH release; also recorded: dose-dependent neuroprotective effects”.

Regarding “cholecysokinin-8 (DYMGWMDF; ends and bridges not checked; UniProt P06307 96-103, looked up) [CCK-8, neuropeptide elevated in A10 dopaminergic neurons]”, the “LDH release … neuroprotective effect” value in data set [2] is “Significant dose-dependent reductions in LDH release; also recorded: dose-dependent neuroprotective effects”.

For the compound “gastrin releasing peptide (VPLPAGGGTVLTKMYPRGNHWAVGHLM; ends and bridges not checked; UniProt P07492 24-50, looked up) [GRP, neuropeptide elevated in A10 dopaminergic neurons]”, the “protective effect against MPP+ toxicity” value in data set [4] (primary VM culture) was “significant protective effect”. Also, the “LDH release … neuroprotective effect” value in data set [2] is on record as “Significant dose-dependent reductions in LDH release; also recorded: dose-dependent neuroprotective effects”.
